Measured values published in patent US20020115642A1, “Beta-lactam antibiotics” (priority 2000, published 2002).
≈ marks a conversion by molar mass, not a printed value. Read-outs that look alike come from different tables or passages of the source.

What was measured:
Assay in all cases: Susceptibility testing (MIC, modified NCCLS method)
E. faecalis = format: cell-based, Enterococcus faecalis
Protocol: (§1) The NCCLS (National Committee for Clinical Laboratory Standards) method to determine MIC's of antimicrobial compounds was modified for high-throughput screening. All stocks of tested compounds were prepared in either water or in dimethylsulfoxide (DMSO), depending on the solubility. […] Briefly 20 2-fold serial dilutions of testing compounds from the highest concentration were made in a 384-well microtiter plate. Each well was inoculated with testing bacteria in broth to a final concentration of approximately 1-1.5×10^6 cells/ml. Bacterial growth was determined by the increase of optical density at 600 nm using a microplate reader (Tecan SpectraFluor Plus).

E. cloacae = format: cell-based, Enterobacter cloacae; details: E. cloacae ATCC 23355
Protocol: as §1

E. aerogenes = format: cell-based, Enterobacter aerogenes; details: E. aerogenes ATCC 35028
Protocol: as §1

Staphylococcus aureus = format: cell-based
Protocol: as §1

P. aeruginosa = format: cell-based, Pseudomonas aeruginosa
Protocol: as §1

K. pneumoniae = format: cell-based, Klebsiella pneumoniae
Protocol: as §1

E. coli N = format: cell-based, Escherichia coli; details: E. coli (N)
Protocol: as §1

E. coli/TEM-1 = format: cell-based, Escherichia coli
Protocol: as §1

[1] = Enterococcus faecalis, ATCC49757, E. faecalis ATCC 49757, read-out: MIC
[2] = Enterococcus faecalis, ATCC700802, E. faecalis ATCC 700802, read-out: MIC
[3] = Enterobacter cloacae, ATCC23355, read-out: MIC
[4] = Escherichia coli, read-out: MIC
[5] = Klebsiella aerogenes, ATCC35028, read-out: MIC
[6] = Staphylococcus aureus, ATCC11632, S. aureus ATCC 11632, read-out: MIC
[7] = Staphylococcus aureus, ATCC33594, S. aureus ATCC 33594, read-out: MIC
[8] = Staphylococcus aureus, ATCC700260, S. aureus ATCC 700260, read-out: MIC
[9] = Staphylococcus aureus, ATCC700699, S. aureus ATCC 700699, read-out: MIC
[10] = Pseudomonas aeruginosa, ATCC21726, P. aeruginosa ATCC 21726, read-out: MIC
[11] = Pseudomonas aeruginosa, ATCC29872, P. aeruginosa ATCC 29872, read-out: MIC
[12] = Klebsiella pneumoniae, ATCC51503, K. pneumoniae ATCC 51503, read-out: MIC
[13] = Klebsiella pneumoniae, ATCC700721, K. pneumoniae ATCC 700721, read-out: MIC

Compound	MIC (E. faecalis; E. faecalis ATCC 49757)	MIC (E. aerogenes)	MIC (Staphylococcus aureus; S. aureus ATCC 700260)	MIC (Staphylococcus aureus; S. aureus ATCC 700699)	MIC (P. aeruginosa; P. aeruginosa ATCC 21726)	MIC (K. pneumoniae; K. pneumoniae ATCC 51503)	MIC (K. pneumoniae; K. pneumoniae ATCC 700721)	MIC (E. faecalis; [1])	MIC (E. faecalis; [2])	MIC (E. cloacae; [3])	MIC (E. aerogenes; [5])	MIC (Staphylococcus aureus; [6])	MIC (Staphylococcus aureus; [7])	MIC (Staphylococcus aureus; [8])	MIC (Staphylococcus aureus; [9])	MIC (P. aeruginosa; [10])	MIC (P. aeruginosa; [11])	MIC (K. pneumoniae; [12])	MIC (K. pneumoniae; [13])	other results
CC(=O)NC1C(=O)N2C(C(=O)O)=C(COc3cc(Cl)ccc3Oc3ccc(Cl)cc3Cl)CSC12 (centres unmarked) [Compound 45]	16 mg/L (≈ 29.4 µM)	>32 mg/L	0.063 mg/L (≈ 0.116 µM)	16 mg/L (≈ 29.4 µM)	>32 mg/L	8 mg/L (≈ 14.7 µM)	2 mg/L (≈ 3.68 µM)													MIC (E. faecalis; E. faecalis ATCC 700802): 32 mg/L (≈ 58.8 µM); MIC (E. cloacae): >32 mg/L; MIC (Staphylococcus aureus; S. aureus ATCC 11632): >32 mg/L; MIC (Staphylococcus aureus; S. aureus ATCC 33594): 0.063 mg/L (≈ 0.116 µM); MIC (P. aeruginosa; P. aeruginosa ATCC 29872): >32 mg/L
O=C(Cc1cccs1)NC1C(=O)N2C(C(=O)O)C(COC(=O)Oc3cc(Cl)ccc3Oc3ccc(Cl)cc3Cl)=CS[C@H]12 (some centres unmarked) [Compound 15, 3-((2-(2,4-Dichlorophenoxy)-5-chlorophenoxy)carbonyloxy)methyl-7-(2-thienylacetamido)-2-cephem-4-carboxylic acid]								> 15.7 mg/L	15.7 mg/L (≈ 23.4 µM)	0.25 mg/L (≈ 0.373 µM)	0.98 mg/L (≈ 1.46 µM)	0.61 mg/L (≈ 0.911 µM)	0.061 mg/L (≈ 0.0911 µM)	0.061 mg/L (≈ 0.0911 µM)	0.061 mg/L (≈ 0.0911 µM)	> 15.7 mg/L	> 15.7 mg/L	1.96 mg/L (≈ 2.93 µM)	1.96 mg/L (≈ 2.93 µM)	MIC (E. coli N; [4]): 0.008 mg/L (≈ 0.0119 µM); MIC (E. coli/TEM-1; Escherichia coli): 0.0031 mg/L (≈ 0.00463 µM)
3-(2-(2,4-Dichlorophenoxy)-5-chlorophenoxy)methyl-7-(1-phenyl-2-aminoacetamido)-3-cephem-4-carboxylic acid [Compound 37]			0.0039 mg/L		>16 mg/L		8 mg/L													MIC (E. coli N): 4 mg/L; MIC (E. coli/TEM-1; E. coli/Tem-1): 0.12 mg/L
3-(2-(2,4-Dichlorophenoxy)-5-chlorophenoxy)methyl-7-[4-(2-aminothiazole)-yl-2-acetamido]-3-cephem-4-carboxylic acid [Compound 39]	16 mg/L	>16 mg/L	0.002 mg/L	4.0 mg/L	>16 mg/L	16 mg/L														MIC (E. coli N): 1 mg/L; MIC (E. coli/TEM-1; E. coli/Tem-1): 0.063 mg/L
NC(C(=O)NC1C(=O)N2C(C(=O)O)=C(COc3cc(Cl)ccc3Oc3ccc(Cl)cc3Cl)CS[C@H]12)c1ccc(O)cc1 (some centres unmarked) [Compound 41, 3-(2-(2,4-Dichlorophenoxy)-5-chlorophenoxy)methyl-7-[2-amino-2-(4-hydroxy-phenyl)acetamido)-3-cephem-4-carboxylic acid]								32 mg/L (≈ 49.2 µM)	32 mg/L (≈ 49.2 µM)	1 mg/L (≈ 1.54 µM)	4 mg/L (≈ 6.15 µM)	0.063 mg/L (≈ 0.0968 µM)	0.063 mg/L (≈ 0.0968 µM)	0.063 mg/L (≈ 0.0968 µM)	0.063 mg/L (≈ 0.0968 µM)	> 32 mg/L	> 32 mg/L	8 mg/L (≈ 12.3 µM)	8 mg/L (≈ 12.3 µM)	MIC (E. coli N; [4]): 0.25 mg/L (≈ 0.384 µM)
O=C(O)CCC(=O)N[C@@H]1C(=O)N2C(C(=O)O)=C(COc3cc(Cl)ccc3Oc3ccc(Cl)cc3Cl)CS[C@H]12 [Compound 36]								> 32 mg/L	> 32 mg/L	> 32 mg/L	> 32 mg/L	> 32 mg/L	> 32 mg/L	> 32 mg/L	> 32 mg/L	> 32 mg/L	> 32 mg/L	> 32 mg/L	> 32 mg/L	MIC (Staphylococcus aureus; Staphylococcus aureus, ATCC33591, S. aureus ATCC 33591, read-out: MIC): 2 mg/L (≈ 3.32 µM)
O=C(Cc1cccs1)NC1C(=O)N2C(C(=O)O)=C(C=CCOc3ccc(Cl)cc3C(=O)Nc3ccc(Cl)c(Cl)c3)CS[C@H]12 (some centres unmarked) [Compound 35, 3-{3-[4-Chloro-2-(3,4-dichloro-phenylcarbamoyl)-phenoxy]-propenyl}-7-(2-thiophene-acetmido)-3-cephem-4-carboxylic acid]	8 mg/L (≈ 11.8 µM)	>32 mg/L	0.25 mg/L (≈ 0.368 µM)	>32 mg/L	>32 mg/L	>32 mg/L	>32 mg/L													MIC (E. faecalis; E. faecalis ATCC 700802): >32 mg/L; MIC (E. cloacae): >32 mg/L; MIC (Staphylococcus aureus; S. aureus ATCC 11632): 0.063 mg/L (≈ 0.0928 µM); MIC (Staphylococcus aureus; S. aureus ATCC 33594): 0.063 mg/L (≈ 0.0928 µM); MIC (P. aeruginosa; P. aeruginosa ATCC 29872): >32 mg/L
